According to patent US11873309B2, “Heterocyclic compounds as immunomodulators” (Incyte Corporation, priority 2016, dated 2024):

Target: T1, PD-1/PD-L1 protein/protein interaction (recombinant human PD-L1 protein (19-238), recombinant human PD-1 protein (25-167)) (Homo sapiens, UniProt Q9NZQ7)
T1 construct: Recombinant human PD-L1 protein (19-238) with a His-tag at the C-terminus; purchased AcroBiosystems PD1-H5229 (PD-L1); PD1-H5257 (PD-1)
Experiment: PD-1/PD-L1 Homogeneous Time-Resolved Fluorescence (HTRF) Binding Assay
Settings: 25° C., PBS buffer pH 7.4, 40 minutes preincubation with inhibitors
Method: Example A. PD-1/PD-L1 Homogeneous Time-Resolved Fluorescence (HTRF) Binding Assay
The assays were conducted in a standard black 384-well polystyrene plate with a final volume of 20 μL. Inhibitors were first serially diluted in DMSO and then added to the plate wells before the addition of other reaction components. The final concentration of DMSO in the assay was 1%. The assays were carried out at 25° C. in the PBS buffer (pH 7.4) with 0.05% Tween-20 and 0.1% BSA. Recombinant human PD-L1 protein (19-238) with a His-tag at the C-terminus was purchased from AcroBiosystems (PD1-H5229). Recombinant human PD-1 protein (25-167) with Fc tag at the C-terminus was also purchased from AcroBiosystems (PD1-H5257). PD-L1 and PD-1 proteins were diluted in the assay buffer and 10 μL was added to the plate well. Plates were centrifuged and proteins were preincubated with inhibitors for 40 minutes. The incubation was followed by the addition of 10 μL of HTRF detection buffer supplemented with Europium cryptate-labeled anti-human IgG (PerkinElmer-AD0212) specific for Fc and anti-His antibody conjugated to SureLight®-Allophycocyanin (APC, PerkinElmer-AD0059H). After centrifugation, the plate was incubated at 25° C. for 60 min. before reading on a PHERAstar FS plate reader (665 nm/620 nm ratio). Final concentrations in the assay were […], 10 nM PD-L1, 1 nM europium anti-human IgG and 20 nM anti-His-Allophycocyanin. IC50 determination was performed by fitting the curve of percent control activity versus the log of the inhibitor concentration using the GraphPad Prism 5.0 software.

T1 sequence (Q9NZQ7 19-238): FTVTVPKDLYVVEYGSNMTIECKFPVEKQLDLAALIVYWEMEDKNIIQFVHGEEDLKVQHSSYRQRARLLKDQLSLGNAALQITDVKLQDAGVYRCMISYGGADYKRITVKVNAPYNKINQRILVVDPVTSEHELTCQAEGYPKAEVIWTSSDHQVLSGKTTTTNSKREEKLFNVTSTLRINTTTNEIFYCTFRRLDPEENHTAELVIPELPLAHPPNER

Structure (SMILES) | IC50 [µM]
O=C(Nc1cccc(-c2ccccc2)c1Cl)c1nc2c(s1)CNCC2 [Example 33, N-(2-chlorobiphenyl-3-yl)-4,5,6,7-tetrahydro[1,3]thiazolo[5,4-c]pyridine-2-carboxamide] | ≤ 0.1
O=C(Nc1cccc(-c2ccc3c(c2)OCCO3)c1Cl)c1nc2c(s1)CNCC2 [Example 34, N-[2-chloro-3-(2,3-dihydro-1,4-benzodioxin-6-yl)phenyl]-4,5,6,7-tetrahydro[1,3]thiazolo[5,4-c]pyridine-2-carboxamide] | ≤ 0.1
Cn1ncc2c(-c3cccc(NC(=O)c4nc5c(s4)CNCC5)c3Cl)cccc21 [Example 35, N-(2-chloro-3-(1-methyl-1H-indazol-4-yl)phenyl)-4,5,6,7-tetrahydrothiazolo[5,4-c]pyridine-2-carboxamide] | ≤ 0.1
Cc1c(NC(=O)c2nc3c(s2)CNCC3)cc(F)cc1-c1ccc2c(c1)OCCO2 [Example 36, N-[3-(2,3-dihydro-1,4-benzodioxin-6-yl)-5-fluoro-2-methylphenyl]-4,5,6,7-tetrahydro[1,3]thiazolo[5,4-c]pyridine-2-carboxamide] | ≤ 0.1
Cc1c(NC(=O)c2nc3c(s2)CNCC3)ccnc1-c1ccc2c(c1)OCCO2 [Example 37, N-[2-(2,3-dihydro-1,4-benzodioxin-6-yl)-3-methylpyridin-4-yl]-4,5,6,7-tetrahydro[1,3]thiazolo[5,4-c]pyridine-2-carboxamide] | 0.5 to 10
Cc1c(NC(=O)c2nc3c(s2)CNCC3)cncc1-c1ccc2c(c1)OCCO2 [Example 38, N-[5-(2,3-dihydro-1,4-benzodioxin-6-yl)-4-methylpyridin-3-yl]-4,5,6,7-tetrahydro[1,3]thiazolo[5,4-c]pyridine-2-carboxamide] | 0.5 to 10
COc1cccc(-c2cccc(NC(=O)c3nc4c(n3C)CCNC4)c2C#N)c1F [Example 39, N-(2-cyano-2′-fluoro-3′-methoxybiphenyl-3-yl)-1-methyl-4,5,6,7-tetrahydro-1H-imidazo[4,5-c]pyridine-2-carboxamide] | ≤ 0.1
COc1cccc(-c2cccc(NC(=O)c3nc4c(n3C)CCN(CCO)C4)c2C#N)c1F [Example 40, N-(2-cyano-2′-fluoro-3′-methoxybiphenyl-3-yl)-5-(2-hydroxyethyl)-1-methyl-4,5,6,7-tetrahydro-1H-imidazo[4,5-c]pyridine-2-carboxamide] | ≤ 0.1
COc1cccc(-c2cccc(NC(=O)c3nc4c(n3C)CCN(CC(=O)O)C4)c2C#N)c1F [Example 41, (2-{[(2-cyano-2′-fluoro-3′-methoxybiphenyl-3-yl)amino]carbonyl}-1-methyl-1,4,6,7-tetrahydro-5H-imidazo[4,5-c]pyridin-5-yl)acetic acid] | 0.1 to 0.5
Cn1c(C(=O)Nc2cccc(-c3cccc4c3cnn4C)c2C#N)nc2c1CCNC2 [Example 42, N-(2-cyano-3-(1-methyl-1H-indazol-4-yl)phenyl)-1-methyl-4,5,6,7-tetrahydro-1H-imidazo[4,5-c]pyridine-2-carboxamide] | 0.1 to 0.5
